{"source": "patent US20230139171A1", "about": "(SITA Information Networking Computing UK Limited, priority 2019, published 2023)", "assay_type_in_all_cases": "cell-based", "key": {"human TLR9": {"target": "T1, human TLR9 (Homo sapiens, UniProt Q9NR96)", "T1 construct": "host or cells: HEK-Blue cells", "T1 sequence (Q9NR96 26-1032)": "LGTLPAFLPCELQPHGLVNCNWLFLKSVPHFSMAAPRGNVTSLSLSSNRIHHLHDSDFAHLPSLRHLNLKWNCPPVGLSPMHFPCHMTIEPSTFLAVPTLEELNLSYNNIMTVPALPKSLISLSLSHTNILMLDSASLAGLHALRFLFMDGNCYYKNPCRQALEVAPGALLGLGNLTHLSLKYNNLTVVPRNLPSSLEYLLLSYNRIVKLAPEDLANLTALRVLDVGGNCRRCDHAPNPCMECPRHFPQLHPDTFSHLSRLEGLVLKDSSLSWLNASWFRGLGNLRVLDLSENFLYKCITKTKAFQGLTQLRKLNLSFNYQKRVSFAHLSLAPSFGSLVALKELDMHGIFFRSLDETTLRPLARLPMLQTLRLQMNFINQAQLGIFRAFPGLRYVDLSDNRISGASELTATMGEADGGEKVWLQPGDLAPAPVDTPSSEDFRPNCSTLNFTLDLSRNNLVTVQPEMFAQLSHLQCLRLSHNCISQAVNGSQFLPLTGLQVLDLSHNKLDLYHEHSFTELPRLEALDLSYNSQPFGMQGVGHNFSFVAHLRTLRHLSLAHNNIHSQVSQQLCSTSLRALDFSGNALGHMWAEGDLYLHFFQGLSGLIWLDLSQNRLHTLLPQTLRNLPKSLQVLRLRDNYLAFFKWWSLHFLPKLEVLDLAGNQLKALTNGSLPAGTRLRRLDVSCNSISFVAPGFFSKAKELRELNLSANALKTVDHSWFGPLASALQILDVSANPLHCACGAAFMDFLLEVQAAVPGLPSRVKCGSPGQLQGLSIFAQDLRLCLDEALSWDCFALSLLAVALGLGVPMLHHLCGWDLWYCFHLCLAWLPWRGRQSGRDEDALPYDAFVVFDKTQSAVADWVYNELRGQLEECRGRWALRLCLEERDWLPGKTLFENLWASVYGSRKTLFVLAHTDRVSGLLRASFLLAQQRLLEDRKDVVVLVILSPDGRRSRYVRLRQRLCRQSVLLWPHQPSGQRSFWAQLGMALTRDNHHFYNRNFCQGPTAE", "assay": "TLR9 inhibition reporter assay (HEK-Blue cells, SEAP reporter, ODN2006 stimulation)", "settings": "HEK-Blue cells overexpressing human TLR9, SEAP reporter, ODN2006 5 nM", "method_in_brief": "(§1)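 Dose–response from 0.05 nM to 50 μM was run in HEK-Blue human TLR7, TLR8 and TLR9 reporter cells. After 30 min at room temperature with compound, ligand was added (TLR7 gardiquimod 7.5 μM; TLR8 R848 15.9 μM; TLR9 ODN2006 5 nM) and SEAP measured next day, at 22 h.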"}, "human TLR8": {"target": "T2, human TLR8 (Homo sapiens, UniProt Q9NR97)", "T2 construct": "host or cells: HEK-Blue cells", "T2 sequence (Q9NR97 27-1041)": "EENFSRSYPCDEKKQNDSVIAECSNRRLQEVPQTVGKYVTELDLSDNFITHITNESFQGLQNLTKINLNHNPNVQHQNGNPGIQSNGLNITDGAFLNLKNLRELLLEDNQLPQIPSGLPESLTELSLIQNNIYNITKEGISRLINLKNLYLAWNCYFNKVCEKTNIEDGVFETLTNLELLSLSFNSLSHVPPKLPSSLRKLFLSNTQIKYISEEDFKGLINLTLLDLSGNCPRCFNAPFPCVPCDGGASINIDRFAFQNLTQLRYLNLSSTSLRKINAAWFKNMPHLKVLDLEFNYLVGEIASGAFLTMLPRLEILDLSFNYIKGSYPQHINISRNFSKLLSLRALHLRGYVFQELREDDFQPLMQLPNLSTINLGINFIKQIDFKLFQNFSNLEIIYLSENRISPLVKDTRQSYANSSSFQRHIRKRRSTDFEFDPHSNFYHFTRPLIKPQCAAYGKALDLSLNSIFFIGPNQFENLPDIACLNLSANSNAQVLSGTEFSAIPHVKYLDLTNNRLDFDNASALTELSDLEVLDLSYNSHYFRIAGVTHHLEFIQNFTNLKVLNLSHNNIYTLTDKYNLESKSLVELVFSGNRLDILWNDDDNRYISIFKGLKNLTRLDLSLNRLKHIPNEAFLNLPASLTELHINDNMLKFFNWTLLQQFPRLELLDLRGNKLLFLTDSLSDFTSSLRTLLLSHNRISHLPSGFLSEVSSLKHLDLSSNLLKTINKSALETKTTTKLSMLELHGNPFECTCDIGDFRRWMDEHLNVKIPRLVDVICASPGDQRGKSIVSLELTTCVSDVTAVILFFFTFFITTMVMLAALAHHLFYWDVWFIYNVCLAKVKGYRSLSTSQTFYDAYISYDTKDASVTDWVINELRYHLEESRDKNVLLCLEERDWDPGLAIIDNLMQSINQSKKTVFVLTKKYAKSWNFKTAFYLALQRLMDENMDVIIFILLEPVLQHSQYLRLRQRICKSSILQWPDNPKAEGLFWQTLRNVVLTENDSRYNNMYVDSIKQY", "assay": "TLR8 inhibition reporter assay (HEK-Blue cells, SEAP reporter, R848 stimulation)", "settings": "HEK-Blue cells overexpressing human TLR8, SEAP reporter, R848 15.9 μM; read-out: TLR8 IC50", "method_in_brief": "as §1"}, "human TLR7": {"target": "T3, human TLR7 (Homo sapiens, UniProt Q9NYK1)", "T3 construct": "host or cells: HEK-Blue cells", "T3 sequence (Q9NYK1 27-1049)": "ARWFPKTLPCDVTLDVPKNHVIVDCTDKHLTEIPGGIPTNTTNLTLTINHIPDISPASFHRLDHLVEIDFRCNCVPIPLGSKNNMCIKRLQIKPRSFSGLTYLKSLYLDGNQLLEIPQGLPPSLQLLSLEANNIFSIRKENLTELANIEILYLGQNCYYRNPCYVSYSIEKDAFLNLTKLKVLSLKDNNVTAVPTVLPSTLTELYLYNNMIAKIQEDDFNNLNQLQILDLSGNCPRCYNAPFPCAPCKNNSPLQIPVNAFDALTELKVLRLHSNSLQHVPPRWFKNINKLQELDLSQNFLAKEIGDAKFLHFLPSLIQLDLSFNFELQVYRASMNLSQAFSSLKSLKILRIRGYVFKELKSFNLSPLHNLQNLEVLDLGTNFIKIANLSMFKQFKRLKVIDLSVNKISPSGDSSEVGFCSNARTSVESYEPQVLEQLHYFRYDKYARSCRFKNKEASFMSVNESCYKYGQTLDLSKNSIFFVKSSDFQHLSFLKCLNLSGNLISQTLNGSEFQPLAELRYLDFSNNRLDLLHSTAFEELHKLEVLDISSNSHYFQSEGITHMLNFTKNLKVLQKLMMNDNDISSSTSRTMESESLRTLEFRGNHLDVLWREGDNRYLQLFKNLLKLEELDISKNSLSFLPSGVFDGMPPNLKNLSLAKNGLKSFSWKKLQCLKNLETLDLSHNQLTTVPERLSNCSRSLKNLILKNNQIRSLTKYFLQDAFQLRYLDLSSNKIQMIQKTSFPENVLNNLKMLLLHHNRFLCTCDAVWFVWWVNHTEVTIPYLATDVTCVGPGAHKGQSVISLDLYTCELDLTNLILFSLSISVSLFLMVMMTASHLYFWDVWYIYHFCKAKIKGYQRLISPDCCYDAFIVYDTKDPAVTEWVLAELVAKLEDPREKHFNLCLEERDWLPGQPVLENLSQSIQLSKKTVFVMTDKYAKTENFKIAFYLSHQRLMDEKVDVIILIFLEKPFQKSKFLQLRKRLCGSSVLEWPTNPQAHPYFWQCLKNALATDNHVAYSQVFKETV", "assay": "TLR7 inhibition reporter assay (HEK-Blue cells, SEAP reporter, gardiquimod stimulation)", "settings": "HEK-Blue cells overexpressing human TLR7, SEAP reporter, gardiquimod 7.5 μM; read-out: TLR7 IC50", "method_in_brief": "as §1"}}}
{"smiles": "Cc1cc(-c2[nH]c3sc(C4CCC(N5CC6(COC6)C5)CC4)nc3c2C(C)C)cn2ncnc12", "note": "(single isomer, unassigned) [Example 137, 6-(4-(6-isopropyl-5-(8-methyl-[1,2,4]triazolo[1,5-a]pyridin-6-yl)-4H-pyrrolo[3,2-d]thiazol-2-yl)cyclohexyl)-2-oxa-6-azaspiro[3.3]heptane]", "values": [{"measurement": "IC50", "setting": "human TLR9", "value": 6730, "unit": "nM"}, {"measurement": "IC50", "setting": "human TLR8", "value": 40.8, "unit": "nM"}, {"measurement": "IC50", "setting": "human TLR7", "value": 3.4, "unit": "nM"}]}
{"smiles": "Cc1cc(-c2[nH]c3sc(C4CCC(NC56CC(C5)C6)CC4)nc3c2C(C)C)cn2ncnc12", "note": "(single isomer, unassigned) [Example 138, N-(4-(6-isopropyl-5-(8-methyl-[1,2,4]triazolo[1,5-a]pyridin-6-yl)-4H-pyrrolo[3,2-d]thiazol-2-yl)cyclohexyl)bicyclo[1.1.1]pentan-1-amine]", "values": [{"measurement": "IC50", "setting": "human TLR9", "value": 14800, "unit": "nM"}, {"measurement": "IC50", "setting": "human TLR8", "value": 3.96, "unit": "nM"}, {"measurement": "IC50", "setting": "human TLR7", "value": 0.93, "unit": "nM"}]}
{"smiles": "Cc1cc(-c2[nH]c3sc(C4CCC(NC56CC(C5)C6)CC4)nc3c2C(C)C)cn2ncnc12", "note": "(single isomer, unassigned) [Example 139, N-(4-(6-isopropyl-5-(8-methyl-[1,2,4]triazolo[1,5-a]pyridin-6-yl)-4H-pyrrolo[3,2-d]thiazol-2-yl)cyclohexyl)bicyclo[1.1.1]pentan-1-amine]", "values": [{"measurement": "IC50", "setting": "human TLR9", "value": 17500, "unit": "nM"}, {"measurement": "IC50", "setting": "human TLR8", "value": 26.3, "unit": "nM"}, {"measurement": "IC50", "setting": "human TLR7", "value": 4.96, "unit": "nM"}]}
{"smiles": "Cc1cc(-c2[nH]c3sc(C4CCC(NCC(C)(C)O)CC4)nc3c2C(C)C)cn2ncnc12", "note": "(single isomer, unassigned) [Example 140, 1-((4-(6-isopropyl-5-(8-methyl-[1,2,4]triazolo[1,5-a]pyridin-6-yl)-4H-pyrrolo[3,2-d]thiazol-2-yl)cyclohexyl)amino)-2-methylpropan-2-ol]", "values": [{"measurement": "IC50", "setting": "human TLR9", "value": 10400, "unit": "nM"}, {"measurement": "IC50", "setting": "human TLR8", "value": 0.89, "unit": "nM"}, {"measurement": "IC50", "setting": "human TLR7", "value": 0.59, "unit": "nM"}]}
{"smiles": "Cc1cc(-c2[nH]c3sc(C4CCC(NCC(C)(C)O)CC4)nc3c2C(C)C)cn2ncnc12", "note": "(single isomer, unassigned) [Example 141, 1-((4-(6-isopropyl-5-(8-methyl-[1,2,4]triazolo[1,5-a]pyridin-6-yl)-4H-pyrrolo[3,2-d]thiazol-2-yl)cyclohexyl)amino)-2-methylpropan-2-ol]", "values": [{"measurement": "IC50", "setting": "human TLR9", "value": 12800, "unit": "nM"}, {"measurement": "IC50", "setting": "human TLR8", "value": 13.5, "unit": "nM"}, {"measurement": "IC50", "setting": "human TLR7", "value": 3.03, "unit": "nM"}]}
{"smiles": "Cc1cc(-c2[nH]c3sc(C4CCC(NCC5(CO)CC5)CC4)nc3c2C(C)C)cn2ncnc12", "note": "(single isomer, unassigned) [Example 142, (1-(((4-(6-isopropyl-5-(8-methyl-[1,2,4]triazolo[1,5-a]pyridin-6-yl)-4H-pyrrolo[3,2-d]thiazol-2-yl)cyclohexyl)amino)methyl)cyclopropyl)methanol]", "values": [{"measurement": "IC50", "setting": "human TLR9", "value": 6970, "unit": "nM"}, {"measurement": "IC50", "setting": "human TLR8", "value": 2.7, "unit": "nM"}, {"measurement": "IC50", "setting": "human TLR7", "value": 2.08, "unit": "nM"}]}
{"smiles": "Cc1cc(-c2[nH]c3sc(C4CCC(NCC5(CO)CC5)CC4)nc3c2C(C)C)cn2ncnc12", "note": "(single isomer, unassigned) [Example 143, (1-(((4-(6-isopropyl-5-(8-methyl-[1,2,4]triazolo[1,5-a]pyridin-6-yl)-4H-pyrrolo[3,2-d]thiazol-2-yl)cyclohexyl)amino)methyl)cyclopropyl)methanol]", "values": [{"measurement": "IC50", "setting": "human TLR9", "value": 9280, "unit": "nM"}, {"measurement": "IC50", "setting": "human TLR8", "value": 19.6, "unit": "nM"}, {"measurement": "IC50", "setting": "human TLR7", "value": 5.34, "unit": "nM"}]}
{"smiles": "Cc1cc2ncnn2cc1-c1[nH]c2sc(C3CCC(NC4(C)COC4)CC3)nc2c1C(C)C", "note": "(single isomer, unassigned) [Example 144, N-(4-(6-isopropyl-5-(7-methyl-[1,2,4]triazolo[1,5-a]pyridin-6-yl)-4H-pyrrolo[3,2-d]thiazol-2-yl)cyclohexyl)-3-methyloxetan-3-amine]", "values": [{"measurement": "IC50", "setting": "human TLR9", "value": 15200, "unit": "nM"}, {"measurement": "IC50", "setting": "human TLR8", "value": 3.56, "unit": "nM"}, {"measurement": "IC50", "setting": "human TLR7", "value": 7.26, "unit": "nM"}]}
{"smiles": "Cc1cc2ncnn2cc1-c1[nH]c2sc(C3CCC(NC4(C)COC4)CC3)nc2c1C(C)C", "note": "(single isomer, unassigned) [Example 145, N-(4-(6-isopropyl-5-(7-methyl-[1,2,4]triazolo[1,5-a]pyridin-6-yl)-4H-pyrrolo[3,2-d]thiazol-2-yl)cyclohexyl)-3-methyloxetan-3-amine]", "values": [{"measurement": "IC50", "setting": "human TLR9", "value": "> 50000", "unit": "nM"}, {"measurement": "IC50", "setting": "human TLR8", "value": 41.6, "unit": "nM"}, {"measurement": "IC50", "setting": "human TLR7", "value": 60.3, "unit": "nM"}]}
